Experiment: xn = mol fraction of the nth substance listed
Conditions: 100 kPa, Liquid; for viscosity: Concentric cylinders viscometry; for mass density: Vibrating tube method

CCCCn1cc[n+](C)c1.O=S(=O)([O-])C(F)(F)F [1-butyl-3-methylimidazolium trifluoromethanesulfonate] + CCCC[n+]1ccn(C)c1.O=S(=O)([N-]S(=O)(=O)C(F)(F)F)C(F)(F)F
Conditions | mass density, x2 = 0 [kg/m3] | mass density, x2 = 0.25 [kg/m3] | mass density, x2 = 0.5 [kg/m3] | mass density, x2 = 0.746 [kg/m3] | viscosity, x2 = 0 [mPa·s] | viscosity, x2 = 0.25 [mPa·s] | viscosity, x2 = 0.5 [mPa·s] | viscosity, x2 = 0.746 [mPa·s]
283.15 K | 1308.4 | 1352.7 | 1389 | 1421.8 | 225.61 | 154.7 | 145 | 145.79
288.15 K | 1304.3 | 1348.3 | 1384.4 | 1417.1 | 168.05 | 117.06 | 109.34 | 111.5
293.15 K | 1300.3 | 1344 | 1379.9 | 1412.4 | 128.51 | 90.69 | 84.53 | 87.3
298.15 K | 1296.3 | 1339.8 | 1375.5 | 1407.8 | 99.14 | 71.42 | 66.62 | 68.68
303.15 K | 1292.3 | 1335.5 | 1371 | 1403.2 | 78.26 | 57.29 | 53.39 | 55.86
308.15 K | 1288.4 | 1331.3 | 1366.6 | 1398.6 | 62.76 | 46.66 | 43.56 | 45.8
313.15 K | 1284.5 | 1327 | 1362.2 | 1394 | 51.33 | 38.52 | 35.96 | 38.1
318.15 K | 1280.6 | 1322.8 | 1357.8 | 1389.4 | 42.1 | 32.19 | 30.15 | 32.2
323.15 K | 1276.7 | 1318.7 | 1353.5 | 1384.9 | 35.13 | 27.21 | 25.43 | 27.44
328.15 K | 1272.8 | 1314.5 | 1349.2 | 1380.4 | 29.63 | 23.24 | 21.66 | 23.47
333.15 K | 1268.9 | 1310.4 | 1344.9 | 1376 | 25.5 | 20.06 | 18.55 | 20.27
338.15 K | 1265.1 | 1306.2 | 1340.6 | 1371.5 | 21.72 | 17.4 | 16.08 | 17.6
343.15 K | 1261.3 | 1302.2 | 1336.3 | 1367.1 | 18.84 | 15.23 | 14.13 | 15.46
348.15 K | 1257.5 | 1298.1 | 1332 | 1362.6 | 16.47 | 13.43 | 12.54 | 13.66
353.15 K | 1253.7 | 1294 | 1327.8 | 1358.2 | 14.83 | 11.94 | 11.18 | 12.23
358.15 K | 1249.9 | 1290 | 1323.5 | 1353.8 | 12.86 | 10.63 | 9.981 | 10.93
363.15 K | 1246.2 | 1286.1 | 1319.3 | 1349.5 | 11.48 | 9.541 | 8.973 | 9.909

Source: the NIST ThermoML archive (doi:10.1021/acs.jced.6b00178)
